Laboratory results reported in patent publication US20180344702A1, “METHODS FOR TREATING PATIENTS WITH HEMATOLOGIC MALIGNANCIES” (Aptose Biosciences, Inc., priority 2017, published 2018).
pIC50, pKd: −log10 of the molar value.

Tests used:
K562 = assay: Cytotoxicity, MTS cell viability; assay type: cell-based; details: Homo sapiens, 72 h, CML, 3 days MTS
Method: (§1) Cells were seeded in a 96 well plate and treated with either vehicle (DMSO) or compound 7 at 10 different concentrations for 3 days at 37° C. and 5% CO2. Cell viability was assessed using CellTiter 96 AQueous one solution (MTS Promega Cat#G3581), and IC50 values calculated using GraphPad Prism 7 software.
(§2) Cytotoxicity procedure: Cells were seeded in 96-well plate and treated with vehicle DMSO or Compound 7 at a specified concentration and incubated for 72 hours.

Ramos = assay: Cytotoxicity, MTS cell viability; assay type: cell-based; details: Homo sapiens, 72 h, Burkitt's, 3 days MTS
Method: as §1, §2

Raji = assay: Cytotoxicity, MTS cell viability; assay type: cell-based; details: Burkitt's, 3 days MTS
Method: as §1, §2

RL = assay: Cytotoxicity, MTS cell viability; assay type: cell-based; details: Homo sapiens, 72 h, DLBCL / GCB-DLBCL, 3 days MTS
Method: as §1, §2

RS411 = assay: Cytotoxicity, MTS cell viability; assay type: cell-based; details: Homo sapiens, RS4-11, 72 h, ALL / B-ALL, 3 days MTS
Method: as §1, §2

Jeko-1 = assay: Cytotoxicity, MTS cell viability; assay type: cell-based; details: Homo sapiens, 72 h, MCL, 3 days MTS
Method: as §1, §2

Mino [1] = assay: Cytotoxicity, MTS cell viability; assay type: cell-based; details: Homo sapiens, 72 h, MCL, 3 days MTS
Method: as §1, §2

MEC-1 = assay: Cytotoxicity, MTS cell viability; assay type: cell-based; details: CLL, 3 days MTS
Method: as §1, §2

GRANTA-519 = assay: Cytotoxicity, MTS cell viability; assay type: cell-based; details: Homo sapiens, 72 h, MCL, 3 days MTS
Method: as §1, §2

SU-DHL6 = assay: Cytotoxicity, MTS cell viability; assay type: cell-based; details: Homo sapiens, SU-DHL-6, 72 h, DLBCL / GCB-DLBCL, 3 days MTS
Method: as §1, §2

Daudi = assay: Cytotoxicity, MTS cell viability; assay type: cell-based; details: Homo sapiens, 72 h, Burkitt's, 3 days MTS
Method: as §1, §2

Mino cells = assay: Polyploidy in B-cell lines (Edu and PI staining, FACS); assay type: cell-based, human; details: 0.1 and 1.0 nM
Method: Further mechanistic studies were undertaken to fully elucidate Compound 7's potent cytotoxicity. B-cell lines were treated with vehicle or Compound 7 for 24-72 hours and the increase in DNA content or polyploidy phenotype was assessed using Edu and PI staining followed by FACS analysis using the BD Accuri C6 flow cytometer.
Mino and Ramos cell lines were treated with increasing concentrations of.

L1236 = assay: Cytotoxicity, MTS cell viability; assay type: cell-based; details: L-1236, 72 h, HL, 3 days MTS
Method: as §1

SU-DHL2 = assay: Cytotoxicity, MTS cell viability; assay type: cell-based; details: Homo sapiens, SU-DHL-2, 72 h, ABC-DLBCL, 3 days MTS
Method: as §1

DOHH2 = assay: Cytotoxicity, MTS cell viability; assay type: cell-based; details: Homo sapiens, DOHH-2, 72 h, FL, 3 days MTS
Method: as §1

U2932 = assay: Cytotoxicity, MTS cell viability; assay type: cell-based; details: Homo sapiens, 72 h, ABC-DLBCL, 3 days MTS
Method: as §1

OCI-LY3 = assay: Cytotoxicity, MTS cell viability; assay type: cell-based; details: Homo sapiens, 72 h, ABC-DLBCL, 3 days MTS
Method: as §1

MHH-Call4 = assay: Cytotoxicity, MTS cell viability; assay type: cell-based; details: MHHCALL4, 72 h, B-ALL, 3 days MTS
Method: as §1

BJAB = assay: Cytotoxicity, MTS cell viability; assay type: cell-based; details: Homo sapiens, 72 h, GCB-DLBCL, 3 days MTS
Method: as §1

[2] = tested on: Ba/F3-ITD + 842 (ITD + Y842C); assay: Antiproliferative activity (Table 6); assay type: cell-based, Murin; details: 72 h
[3] = tested on: Ba/F3 cells transfected with FLT3 D835Y; assay: Cytotoxicity in isogenic transfected Ba/F3 cells (Table 4); assay type: cell-based, Murin; details: Mus musculus, BaF3, read-out: IC50 in Transfected Ba/F3 cells, FLT3 D835Y
[4] = tested on: PDGFRA and FLT3 (WT) signaling in EOL-1 cells; assay: Cell signaling Western blot; assay type: cell-based
Method: Immunoblot assays: Cells were treated with Compound 7 at various concentrations and collected for cell lysates. The total and phosphorylated levels of the indicated proteins were determined by Western Blot.

Mino [5] = assay: Apoptosis in B-cell malignancies (annexin V/PI, cleaved PARP); assay type: cell-based, human; details: increasing concentrations
Method: Mechanistic studies were undertaken to determine the mechanism of action for Compound 7. The apoptotic state of treated cells was determined by staining with annexin V and propidium iodide (PI), then analysis with the BD Accuri C6 flow cytometer, whereby live cells are annexin V/PI negative, early apoptotic cells are annexin V positive and late apoptotic cells are annexin V and PI positive. In addition production of cleaved PARP, a classic apoptotic marker, was assayed by western blotting with specific antibodies.

Kasumi-1 (FLT3-WT) = assay: Antiproliferative activity (Table 6); assay type: cell-based; details: Homo sapiens, Kasumi 1, 72 h
[6] = tested on: various heme cell lines (MV4-11, NOMO-1, and KG-1 cells); assay: Polyploidy, EdU and PI staining with FACS; assay type: cell-based; details: 24 hours, increasing concentrations
Method: MV4-11, NOMO-1, and KG-1 cells were treated at increasing concentrations of Compound 7 for 24 hours, and the increase in DNA content or polploidy phenotype was assessed using EdU and PI staining followed by FACS analysis using the BD Accuri C6 flow.

[7] = tested on: BCR signaling in Ramos cells; assay: BCR signaling in IgM-stimulated Ramos cells; assay type: cell-based; details: 1 or 6 hours, then 12 μg/mL IgM for 3 min
Method: In this experiment, Ramos cells were treated with or without Compound 7 or Ibrutinin at the indicated concentration for 1 (6 replicates) or 6 (3 replicates) hours, then stimulated with 12 μg/mL IgM for 3 min.

FLT3(D835Y) = molecular target: T1, FLT3(D835Y) (Homo sapiens, UniProt P36888, D835Y); assay: Binding constant (Kd), competition binding with qPCR readout
T1 construct: made in house; host or cells: E. coli BL21-derived host (T7 phage) or HEK-293

[8] = Pharmacokinetic study in rat; assay type: in vivo
Ba/F3-ITD (FLT3-ITD) = assay: Antiproliferative activity (Table 6); assay type: cell-based, Murin; details: 72 h

With Cc1cnc(-c2ccc(-c3ccc(NC(=O)Nc4c(F)cc(F)cc4F)cc3F)c3c2C(=O)NC3)[nH]1 [Compound 7, 1-{3-fluoro-4-[7-(5-methyl-1H-imidazol-2-yl)-1-oxo-2,3-dihydro-1H-isoindol-4-yl]-phenyl}-3-(2,4,6-trifluorophenyl)urea] the pIC50 (K562) was 4.89, the pIC50 (Ramos) was 7.73 and the pIC50 (Raji) was 5.69. The pIC50 (Raji; Homo sapiens, 72 h) was 5.69, the pIC50 (RL) was 6.37 and the pIC50 (RS411) was 8.82. It also gave a pIC50 (Jeko-1) of 7.13, a pIC50 (Mino [1]) of 8.22 and a pIC50 (MEC-1) of 5.42. For the same compound, the pIC50 (MEC-1; Homo sapiens, MEC1, 72 h) was 5.42, the pIC50 (GRANTA-519) was 7.87 and the pIC50 (SU-DHL6) was 6.92. The pIC50 (Daudi) was 6.78, the “Polyploidy (>4n) followed by apoptosis” value (Mino cells) was “effectively induced polyploidy (>4n) followed by apoptosis” and the pIC50 (L1236) was 5.11. It also gave a pIC50 (SU-DHL2) of 6.13, a pIC50 (DOHH2) of 8.53 and a pIC50 (U2932) of 6.20. For the same compound, the pIC50 (OCI-LY3) was 6.08, the pIC50 (MHH-Call4) was 7.56 and the pIC50 (BJAB) was 6.05. For the same compound, the pIC50 [2] was 9.14, the pIC50 [3] was 8.06 and the “PDGFRA and FLT3 (WT) signaling (Western blot)” value [4] was “inhibits PDGFRA and FLT3 (WT) signaling”. The “Apoptosis induction versus ibrutinib” value (Mino [5]) was “induced apoptosis more effectively than ibrutinib at all concentrations tested”, the pIC50 (Kasumi-1 (FLT3-WT)) was 7.66 and the Polyploidies [6] was “induce polyploidies”. The BCR signaling [7] was “affects the BCR signaling”, the pKd (FLT3(D835Y)) was 8.38 and the Exposure ([8]; 2 mg/kg administered by i.v.) was “Reasonable exposure”. The AUC ([8]; administered orally, FIG. 5) was “AUC improves in a dose-dependent manner” and the pIC50 (Ba/F3-ITD (FLT3-ITD)) was 9.52.
